From patent publication US20250051345A1, “PYRIDINE-3-CARBOXYLATE COMPOUNDS AS CAV1.2 ACTIVATORS” (Novartis AG, priority 2021, published 2025)
pEC50: −log10 of the molar value.

Key:
human Cav1.2 [1] = biological target: T1, human Cav1.2 (Homo sapiens (Human), UniProt Q13936); test: QPatch channel biophysics assay (V1/2 voltage shift, tau of inactivation) in the Cav1.2-HEK293 (AUX) cell line; assay type: cell-based
Procedure: (§1) Clonal isolation was achieved under Neomycin selection.
(§2) Each experimental run uses 1.5 mL of cells.
(§3) The protocol had eight liquid periods. […] The protocol had four liquid periods.

human Cav1.2 [2] = biological target: T1, human Cav1.2; test: Sophion QPatch dose-response assay, whole-cell voltage clamp of barium currents in the Cav1.2-HEK293 (AUX) cell line; assay type: cell-based; conditions: for QPatch Emax: maximal fold change of peak inward current
Procedure: as §1, §2, §3

cFos mRNA = cFos mRNA induction in cortex of wild-type mice (PK-PD); assay type: in vivo, mouse; conditions: 3 mg/kg ip, one hour after administration
Procedure: (§4) Compound administration and brain tissue collection.
Quantification of cFos mRNA induction. Tissue homogenization was performed using TissueLyser system for 96 well plates (Qiagen). First, frozen cortical samples were thawed, removed from RNAlater, and placed into TissueLyser tubes along with Buffer RLT containing 0.5% Reagent DX and one 5 mm TissueLyser metal bead. The TissueLyser tubes were loaded into a TissueLyser II tissue homogenizer for 3 rounds of homogenization, with each round lasting 5 minutes at 30 Hz bead-beating frequency. Total RNA was purified from the homogenate using RNeasy 96 Plus kit (Qiagen), RNA concentration and A260/A280 ratio were quantified via the Nanodrop (ThermoFisher), and all samples were normalized to 100 ng/μl concentration. […]
Quantitative PCR was performed on the cDNA samples using Quantitect Multiplex RT-PCR kit (Qiagen) in a 384-well assay format. […] On the ViiA7 Real-Time PCR system (ThermoFisher), the samples were heated to 95° C. for 15 minutes then cycled between 94° C. for 45 seconds and 60° C. for 45 seconds for 45 cycles. cFos Ct values were exported, normalized to GAPDH Ct values, and converted to relative fold change in expression using the delta-delta Ct relative quantification method. cFos fold changes between compound treatments and vehicle were analyzed by one-way ANOVA, followed by Tukey's post-hoc comparisons.

[3] = Compound exposure in brain (cerebellum) and blood of wild-type mice; assay type: in vivo, mouse; conditions: C57BL/6J male mice, i.p., one hour after administration
Text: as §4
Quantification of compound exposure.

[4] = shift of half-way channel activation voltage V1/2
[5] = 6-point dose response, 10 determinations per concentration, n = 1 unless stated
[6] = comparative examples, single enantiomers of reported racemates

T1 sequence (Q13936 whole entry): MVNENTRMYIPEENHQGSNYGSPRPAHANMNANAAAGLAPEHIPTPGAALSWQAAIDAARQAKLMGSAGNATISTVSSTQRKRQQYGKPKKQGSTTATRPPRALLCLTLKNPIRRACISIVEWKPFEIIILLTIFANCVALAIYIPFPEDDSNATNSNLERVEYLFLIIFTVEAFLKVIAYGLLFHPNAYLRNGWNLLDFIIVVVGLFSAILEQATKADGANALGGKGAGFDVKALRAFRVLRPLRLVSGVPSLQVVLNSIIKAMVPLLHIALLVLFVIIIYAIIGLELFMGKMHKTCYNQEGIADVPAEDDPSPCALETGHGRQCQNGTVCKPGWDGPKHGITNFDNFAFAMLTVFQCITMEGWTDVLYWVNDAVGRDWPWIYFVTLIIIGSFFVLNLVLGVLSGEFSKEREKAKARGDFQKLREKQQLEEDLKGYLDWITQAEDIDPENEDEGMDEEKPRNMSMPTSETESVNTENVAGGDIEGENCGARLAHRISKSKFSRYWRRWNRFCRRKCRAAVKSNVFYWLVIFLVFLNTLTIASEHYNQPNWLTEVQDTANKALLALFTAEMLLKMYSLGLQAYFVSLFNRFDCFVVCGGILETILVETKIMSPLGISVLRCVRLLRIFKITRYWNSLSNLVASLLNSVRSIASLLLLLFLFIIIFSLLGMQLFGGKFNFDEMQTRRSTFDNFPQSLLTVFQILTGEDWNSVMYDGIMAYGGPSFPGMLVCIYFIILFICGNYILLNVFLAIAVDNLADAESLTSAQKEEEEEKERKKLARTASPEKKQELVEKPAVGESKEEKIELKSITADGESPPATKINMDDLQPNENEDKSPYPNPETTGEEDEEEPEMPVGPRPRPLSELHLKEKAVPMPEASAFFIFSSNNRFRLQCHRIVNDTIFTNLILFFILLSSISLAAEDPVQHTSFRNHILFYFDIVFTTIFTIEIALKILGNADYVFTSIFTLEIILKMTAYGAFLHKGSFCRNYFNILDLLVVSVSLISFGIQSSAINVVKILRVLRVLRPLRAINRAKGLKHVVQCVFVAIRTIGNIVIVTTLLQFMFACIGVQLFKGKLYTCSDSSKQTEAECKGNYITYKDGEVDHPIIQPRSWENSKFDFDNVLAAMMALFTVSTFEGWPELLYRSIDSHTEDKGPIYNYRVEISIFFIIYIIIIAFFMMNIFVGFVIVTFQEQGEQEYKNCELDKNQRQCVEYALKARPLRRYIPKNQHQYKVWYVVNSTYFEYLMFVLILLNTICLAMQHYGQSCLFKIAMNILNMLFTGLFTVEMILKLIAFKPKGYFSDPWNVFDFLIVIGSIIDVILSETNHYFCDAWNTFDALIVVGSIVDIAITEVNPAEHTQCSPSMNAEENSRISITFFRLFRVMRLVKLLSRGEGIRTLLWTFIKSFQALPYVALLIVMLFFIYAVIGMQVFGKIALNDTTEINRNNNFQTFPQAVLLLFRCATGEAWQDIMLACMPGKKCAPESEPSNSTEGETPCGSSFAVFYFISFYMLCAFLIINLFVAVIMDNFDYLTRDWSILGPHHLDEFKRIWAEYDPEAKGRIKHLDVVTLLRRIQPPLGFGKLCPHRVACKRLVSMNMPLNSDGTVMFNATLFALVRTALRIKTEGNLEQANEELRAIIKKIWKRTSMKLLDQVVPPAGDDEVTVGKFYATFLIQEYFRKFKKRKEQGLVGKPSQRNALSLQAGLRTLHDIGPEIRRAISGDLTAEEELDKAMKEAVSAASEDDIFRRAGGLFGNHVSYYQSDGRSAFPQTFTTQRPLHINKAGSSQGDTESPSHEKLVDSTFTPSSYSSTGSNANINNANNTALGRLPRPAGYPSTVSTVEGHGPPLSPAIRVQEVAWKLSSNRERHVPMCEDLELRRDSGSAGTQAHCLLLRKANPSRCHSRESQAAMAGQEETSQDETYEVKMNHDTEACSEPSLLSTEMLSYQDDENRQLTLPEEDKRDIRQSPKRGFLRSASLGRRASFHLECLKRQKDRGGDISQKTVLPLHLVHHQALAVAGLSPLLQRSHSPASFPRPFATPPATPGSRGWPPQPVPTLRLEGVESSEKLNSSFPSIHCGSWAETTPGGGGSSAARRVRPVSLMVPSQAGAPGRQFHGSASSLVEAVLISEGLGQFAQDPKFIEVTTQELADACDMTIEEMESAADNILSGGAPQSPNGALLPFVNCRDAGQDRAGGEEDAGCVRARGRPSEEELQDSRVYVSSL

COC(=O)C1=C(C)NC2=C(C(=O)OC2)[C@H]1c1cncc(F)c1[C@@H](C)F (single isomer, unassigned) [Example 1, methyl(S)-4-(5-fluoro-4-((R)-1-fluoroethyl)pyridin-3-yl)-2-methyl-5-oxo-1,4,5,7-tetrahydrofuro [3,4-b]pyridine-3-carboxylate or methyl(S)-4-(5-fluoro-4-((S)-1-fluoroethyl)pyridin-3-yl)-2-methyl-5-oxo-1,4,5,7-tetrahydrofuro [3,4-b]pyridine-3-carboxylate]
Biophysics voltage shift (human Cav1.2 [1]; [4]): −6.6 mV
pEC50 (human Cav1.2 [2]; [5]): 6.66
QPatch Emax (human Cav1.2 [2]): 3.3
%↑ cFOS mRNA cortex (cFos mRNA): 174%
Brain: blood Ratio [3]: 0.2

COC(=O)C1=C(C(F)F)NC2=C(C(=O)OC2)[C@H]1c1cncc(F)c1[C@@H](C)F (single isomer, unassigned) [Example 6, methyl 2-(difluoromethyl)-4-(5-fluoro-4-(1-fluoroethyl)pyridin-3-yl)-5-oxo-1,4,5,7-tetrahydrofuro [3,4-b]pyridine-3-carboxylate]
Biophysics voltage shift (human Cav1.2 [1]; [4]): −5.6 mV
pEC50 (human Cav1.2 [2]; [5]): 6.60
QPatch Emax (human Cav1.2 [2]): 2.5

COC(=O)C1=C(C)NC(C)=C([N+](=O)[O-])[C@H]1c1ccccc1C(F)(F)F [Comparative Example 1, BayK8644]
QPatch Emax (human Cav1.2 [2]; comparative examples): 3.9

CCOC(=O)C1=C(C)NC2=C(C(=O)OC2)[C@H]1c1ccccc1OCc1ccccc1 [Comparative Example 2, RS30124]
Biophysics voltage shift (human Cav1.2 [1]; comparative examples): −15.4 mV
pEC50 (human Cav1.2 [2]; [6]): 6.35
QPatch Emax (human Cav1.2 [2]; comparative examples): 4.3

CCOC(=O)C1=C(C)NC2=C(C(=O)OC2)[C@H]1c1ccccc1OC(F)F [Comparative Example 3, CGP028392]
Biophysics voltage shift (human Cav1.2 [1]; comparative examples): −6.7 mV
pEC50 (human Cav1.2 [2]; [6]): 6.55
QPatch Emax (human Cav1.2 [2]; comparative examples): 2.2

COC(=O)C1=C(C)NC2=C(C(=O)OC2)C1c1ccccc1C (stereo not shown) [Comparative Example 4]
pEC50 (human Cav1.2 [2]; [6]): 5.65
QPatch Emax (human Cav1.2 [2]; comparative examples): 1.4

COC(=O)C1=C(C)NC2=C(C(=O)OC2)C1c1ccccc1C(F)(F)F (stereo not shown) [Comparative Example 5]
Biophysics voltage shift (human Cav1.2 [1]; comparative examples): −4.3 mV
pEC50 (human Cav1.2 [2]; [6]): 6.44
QPatch Emax (human Cav1.2 [2]; comparative examples): 1.4

COC(=O)C1=C(C)NC2=C(C(=O)OC2)C1c1ccccc1OC(F)F (stereo not shown) [Comparative Example 6]
Biophysics voltage shift (human Cav1.2 [1]; comparative examples): −7.1 mV
pEC50 (human Cav1.2 [2]; [6]): 6.29
QPatch Emax (human Cav1.2 [2]; comparative examples): 1.7

CCOC(=O)C1=C(C)NC2=C(C(=O)OC2)C1c1ccccc1C(F)(F)F (stereo not shown) [Comparative Example 7]
pEC50 (human Cav1.2 [2]; [6]): 6.03
QPatch Emax (human Cav1.2 [2]; comparative examples): 1.9

COC(=O)C1=C(CF)NC2=C(C(=O)OC2)[C@H]1c1cncc(F)c1[C@@H](C)F [Example 2, methyl (R)-4-(5-fluoro-4-((R)-1-fluoroethyl)pyridin-3-yl)-2-(fluoromethyl)-5-oxo-1,4,5,7-tetrahydrofuro [3,4-b]pyridine-3-carboxylate]
Biophysics voltage shift (human Cav1.2 [1]; [4]): −5.9 mV
pEC50 (human Cav1.2 [2]; [5]): 7.21
activity in the Sophion QPatch assay relative to the enantiomer (human Cav1.2 [2]; comparison of stereoisomers): higher activity than its corresponding enantiomer
QPatch Emax (human Cav1.2 [2]): 2.2
%↑ cFOS mRNA cortex (cFos mRNA): 384%
Kp at 1 h ([3]; mouse, brain (cerebellum) / blood, ip, 3 mg/kg, read-out: Brain: blood Ratio): 1.5
